Experimental data taken from patent US12448369B2 (Edgewise Therapeutics, Inc., priority 2023, dated 2025).
Marks after values point to notes of the source that are not given here.

Key:
[1] = target: T1, Porcine ventricle myofibrils (ventricular myosin ATPase) (Sus scrofa, UniProt P79293); experiment: Myofibril ATPase assay, porcine ventricle myofibrils; format: biochemical, porcine (Yucatan minipigs)
T1 construct: Myofibrils from porcine cardiac muscle was isolated from the left ventricle of Yucatan minipigs; tissue Exemplar Genetics; host or cells: left ventricle of Yucatan minipigs, myofibrils prepared in house
T1 sequence (P79293 whole entry): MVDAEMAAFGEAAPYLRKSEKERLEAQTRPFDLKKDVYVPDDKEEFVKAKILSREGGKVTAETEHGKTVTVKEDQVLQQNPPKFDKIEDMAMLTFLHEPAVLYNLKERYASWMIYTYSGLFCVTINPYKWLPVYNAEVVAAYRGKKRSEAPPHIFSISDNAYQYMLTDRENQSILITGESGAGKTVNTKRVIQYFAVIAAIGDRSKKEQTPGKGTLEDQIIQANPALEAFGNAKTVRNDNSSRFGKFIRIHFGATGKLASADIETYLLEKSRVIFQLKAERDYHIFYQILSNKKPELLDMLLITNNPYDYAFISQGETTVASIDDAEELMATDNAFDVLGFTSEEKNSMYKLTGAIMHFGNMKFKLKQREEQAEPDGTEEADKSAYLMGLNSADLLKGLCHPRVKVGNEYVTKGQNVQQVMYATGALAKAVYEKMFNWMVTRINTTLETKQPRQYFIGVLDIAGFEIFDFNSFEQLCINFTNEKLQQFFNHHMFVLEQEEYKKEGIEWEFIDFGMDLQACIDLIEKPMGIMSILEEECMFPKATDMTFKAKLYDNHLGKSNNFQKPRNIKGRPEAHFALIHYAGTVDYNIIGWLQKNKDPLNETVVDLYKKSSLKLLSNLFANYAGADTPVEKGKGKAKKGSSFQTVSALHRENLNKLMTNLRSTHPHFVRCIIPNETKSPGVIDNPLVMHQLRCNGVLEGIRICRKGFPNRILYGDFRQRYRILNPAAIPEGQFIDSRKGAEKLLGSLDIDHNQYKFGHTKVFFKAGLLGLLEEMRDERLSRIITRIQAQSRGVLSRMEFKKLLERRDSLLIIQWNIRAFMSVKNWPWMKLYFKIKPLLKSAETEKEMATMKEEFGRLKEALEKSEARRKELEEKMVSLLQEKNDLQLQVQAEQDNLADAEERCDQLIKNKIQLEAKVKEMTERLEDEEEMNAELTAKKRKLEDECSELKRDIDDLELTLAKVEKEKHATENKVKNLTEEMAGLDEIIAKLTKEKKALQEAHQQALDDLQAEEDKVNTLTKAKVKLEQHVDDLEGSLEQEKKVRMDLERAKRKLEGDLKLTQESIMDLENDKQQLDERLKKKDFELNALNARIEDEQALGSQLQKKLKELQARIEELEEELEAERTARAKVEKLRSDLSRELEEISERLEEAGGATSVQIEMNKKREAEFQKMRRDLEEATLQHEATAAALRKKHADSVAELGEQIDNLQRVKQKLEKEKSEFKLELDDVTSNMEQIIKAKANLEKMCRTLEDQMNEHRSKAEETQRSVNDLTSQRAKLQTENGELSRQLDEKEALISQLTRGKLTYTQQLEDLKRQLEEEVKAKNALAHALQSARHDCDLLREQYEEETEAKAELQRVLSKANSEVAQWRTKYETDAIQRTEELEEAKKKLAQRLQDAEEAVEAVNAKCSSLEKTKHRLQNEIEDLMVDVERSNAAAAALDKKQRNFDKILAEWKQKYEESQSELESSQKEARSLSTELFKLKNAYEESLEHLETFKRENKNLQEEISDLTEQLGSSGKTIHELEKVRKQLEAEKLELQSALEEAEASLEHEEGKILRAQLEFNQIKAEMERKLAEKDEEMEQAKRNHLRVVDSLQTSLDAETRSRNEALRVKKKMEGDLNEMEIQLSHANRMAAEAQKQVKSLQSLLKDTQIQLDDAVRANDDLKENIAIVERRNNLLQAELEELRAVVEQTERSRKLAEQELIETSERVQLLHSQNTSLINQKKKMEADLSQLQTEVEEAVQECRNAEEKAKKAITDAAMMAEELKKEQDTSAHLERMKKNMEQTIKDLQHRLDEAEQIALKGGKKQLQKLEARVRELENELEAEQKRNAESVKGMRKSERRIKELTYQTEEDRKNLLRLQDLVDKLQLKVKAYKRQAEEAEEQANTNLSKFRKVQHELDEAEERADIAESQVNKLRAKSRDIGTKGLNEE
Procedure: (§1) Example 1. Myofibril ATPase Assay
(§2) Myofibril ATPase assays are known in the art to be useful in evaluating small molecules for the treatment of HCM and other cardiac indications. Myosin ATPase activity is assessed by using a coupled reaction system, in which ADP generated by the myosin ATPase function is coupled to the disappearance of NADH through the pyruvate kinase/lactate dehydrogenase (PK-LDH) system. ATPase activity produces ADP, which is used as a substrate for PK to produce pyruvate and regenerate ATP. The pyruvate is then used as a substrate by LDH to oxidize NADH to NAD+. The rate of the reaction is monitored through the time-dependent disappearance of NADH using absorbance at 340 nm, which, when the couple system is in stoichiometric excess, is directly correlated to the ATPase activity of the myosin. Inhibition of ATPase activity by the assayed compounds is indicated by a reduced rate of NADH loss, relative to vehicle-treated controls, over the experimental time window. Activation of ATPase activity by the assayed compounds is indicated by an increased rate of NADH loss, relative to vehicle-treated controls, over the experimental time window. Rabbit Psoas, Porcine atria, and Porcine ventricle are the primary sources of myofibril material.
(§3) Materials: The following stock solutions and reagents were used in the Myofibril ATPase Assay:
(§4) Stock Solutions of pCa buffer. Combine PIPES, CaCl2, and EGTA solutions with water. Adjust pH to 7.0 and bring final volume to 100 mL.
(§5) Buffer A & Buffer B. Prepare buffers A and B according to the table below.
(§6) Myofibril ATPase Assay Procedure: BSA, ATP, NADH, PEP, and DTT solutions were thawed at room temperature, then transferred to ice. Pellet-frozen myofibrils were transferred with approximately twice the required volume into a sufficiently large tube and capped. Myofibrils were thawed by rolling in a water bath for approximately 15 min at room temperature and cooled on ice. Buffers A and B were prepared by adjusting volumes as necessary for required number of wells and stored on ice. 0.5 μL of the compounds to be assayed were added into wells. 25 μL of Buffer A was dispensed into the wells, followed by 25 μL of Buffer B. The wells were measured for absorbance at 340 nm, using a kinetic protocol in which the wells are read every 1.5-2 min for 75 min. Assay data analysis was performed using a python script that filtered the raw data to retain those points falling between a starting and ending time and between a maximum and minimum absorbance, then used the filtered time-domain 340 nm absorbance data in each well to calculate a slope via linear regression analysis in units of mAU/min. Compound slopes were normalized between 100% and 0% activity, where 100% represented the slope of wells containing only compound vehicle, and fit to a 4-parameter logistic model. In addition to the fit parameters, the EC25% values were calculated, relative to the 100% normalized value. Additionally, the Y125 values were calculated for compounds that increased myosin ATP-ase activity. Fit parameters, calculated effective concentrations, filtered raw data, and calculated slopes were exported, in addition to compound-specific graphs of normalized ATPase activity versus concentration in μM. Each value reported in Table 5, Table 6, and Table 7 is either a Y75 value or a Y125 value. Values without a double cross sign, ‡, are Y75 values, which reflect the concentration required to reduce myosin ATP-ase activity by 25% (e.g., Y-axis activity value is 75% of initial value), relative to myosin ATP-ase activity in the absence of exogenous compound.
Cardiac Myofibril Isolation:
Myofibrils from porcine cardiac muscle was isolated from the left ventricle of Yucatan minipigs. Myofibrils were prepared using a method based upon those described in Herrmann et al. (1993) and summarized here. […]

[2] = tested on: Rabbit Psoas myofibrils (skeletal myosin ATPase); experiment: Myofibril ATPase assay, rabbit psoas (skeletal) myofibrils; format: biochemical
Procedure: as §1, §2, §3, §4, §5, §6
Skeletal Myofibril Isolation:
(§7) Myofibrils from various animals and tissue types were acquired from a variety of sources: rabbit psoas muscle was purchased from Pel-Freez Biologicals (Rogers, AR) and porcine cardiac muscle was purchased from Exemplar Genetics. All myofibrils were prepared using a method based upon those described in Herrmann et al. (1993) and summarized here. […]

[3] = tested on: Porcine atria myofibrils (atrial myosin ATPase); experiment: Myofibril ATPase assay, porcine atria myofibrils; format: biochemical
Procedure: as §1, §2, §3, §4, §5, §6, §7

[4] = Y75 value (no ‡ mark), porcine ventricle myofibrils
[5] = Y75 value (no ‡ mark), rabbit psoas myofibrils
[6] = Y75 value (no ‡ mark), porcine atria myofibrils
[7] = porcine ventricle myofibrils, Y75 value
[8] = rabbit psoas myofibrils, Y75 value
[9] = porcine atria myofibrils, Y75 value (75% activity relative to no compound)
[10] = Y75 value: concentration required to reduce myosin ATP-ase activity by 25%, Porcine Ventricle Prep pCa 25 GEOM_MEAN
[11] = Y75 value: concentration required to reduce myosin ATP-ase activity by 25%, Porcine Atria Prep pCa 25 GEOM_MEAN

| Ventricular EC25 [1, 4] [µM] | Skeletal EC25 [2, 5] [µM] | Atrial EC25 [3, 6] [µM] | Compound | further results |
| --- | --- | --- | --- | --- |
| 0.07 | 0.04 | 0.04 | Cc1c([C@H](C)C(=O)N[C@H](C)c2ncc(C#N)cc2F)c(=O)[nH]c2ccc(F)c(F)c12 (single isomer, unassigned) [compound 2601] | – |
| 100.00 | 100.00 | 97.50 | Cc1c(C2(C(=O)N[C@H](C)c3nccc(C#N)n3)CC2)c(=O)[nH]c2ccc(F)cc12 (single isomer, unassigned) [compound 4841] | – |
| 1.00 | 0.14 | 0.20 | Cc1c(C2(C(=O)N[C@@H](C)c3ncc(C#N)cc3F)CC2)c(=O)[nH]c2ccc(F)c(C(F)(F)F)c12 (single isomer, unassigned) [compound 4802] | – |
| 18.78 | 100.00 | 1.52 | Cc1c(C2(C(=O)N[C@@H](C)c3ncc(C#N)cn3)CC2)c(=O)[nH]c2ccc(F)cc12 (single isomer, unassigned) [compound 2591] | – |
| 100.00 | 100.00 | – | Cc1cc(F)cnc1[C@H](C)NC(=O)C(F)(F)c1c(C)c2cc(F)ccc2[nH]c1=O (single isomer, unassigned) [compound 4808] | – |
| 1.39 | 0.82 | – | Cc1cc(F)cnc1[C@@H](C)NC(=O)C(F)(F)c1c(C)c2cc(F)ccc2[nH]c1=O (single isomer, unassigned) [compound 4807] | – |

The next lines start with the compound.

| Compound | Ventricular EC25 [1, 4] [µM] | Skeletal EC25 [2, 5] [µM] | Atrial EC25 [3, 6] [µM] | further results |
| --- | --- | --- | --- | --- |
| C[C@H](NC(=O)Cc1cc2c(F)cc(F)cc2[nH]c1=O)c1ncc(C#N)cc1F [compound 1138] | 1.22 | 0.04 | 1.64 | – |
| Cc1nccc2[nH]c(=O)c(C3(C(=O)N[C@H](C)c4ccc(C#N)cc4F)CC3)c(C)c12 (single isomer, unassigned) [compound 3516] | – | – | – | Ventricular EC25 [1, 7]: 1.49 µM; Skeletal EC25 [2, 8]: 0.24 µM; Atrial EC25 [3, 9]: 0.51 µM |
| Cc1nccc2[nH]c(=O)c(C(F)(F)C(=O)N[C@H](C)c3cnc(C#N)cn3)c(C)c12 (single isomer, unassigned) [compound 3520] | – | – | – | Ventricular EC25 [1, 7]: 4.50 µM; Skeletal EC25 [2, 8]: 0.25 µM; Atrial EC25 [3, 9]: 2.38 µM |
| Cc1c(CC(=O)NC(C)c2cc(C#N)c(F)s2)c(=O)[nH]c2ccc(F)c(F)c12 (stereo not drawn) [compound 4001] | – | – | – | Ventricular EC25 [1, 10]: 0.58 µM; Skeletal EC25 ([2]; Y75 value: concentration required to reduce myosin ATP-ase activity by 25%, Rabbit Psoas Prep pCa 25 GEOM_MEAN): 0.16 µM; Atrial EC25 [3, 11]: 0.26 µM |
| C[C@H](NC(=O)Cc1cc2c(C#N)c(F)ccc2[nH]c1=O)c1ncc(C#N)cn1 (single isomer, unassigned) [compound 2018] | – | – | – | Ventricular EC25 ([1]; ‡ Y125 value, not a Y75 value (125% activity relative to no compound), porcine ventricle myofibrils): 100.00‡ μM; Skeletal EC25 ([2]; ‡ Y125 value, not a Y75 value (125% activity relative to no compound), rabbit psoas myofibrils): 100.00‡ μM; Atrial EC25 ([3]; ‡ Y125 value, not a Y75 value (125% activity relative to no compound), porcine atria myofibrils): 100.00‡ μM |
| Cc1nnccc1[C@H](C)NC(=O)Cc1c(C)c2cc(F)ccc2[nH]c1=O [compound 1091] | 80.11 | 100.00 | 53.30 | – |
| Cc1c(CC(=O)N[C@@H](C)c2ccc(C#N)cn2)c(=O)[nH]c2ccnc(C(F)(F)F)c12 [compound 156] | – | – | – | Ventricular EC25 [1, 7]: 3.12 µM; Skeletal EC25 [2, 8]: 0.21 µM; Atrial EC25 [3, 9]: 0.33 µM |
| Cc1nccc2[nH]c(=O)c(C(F)(F)C(=O)N[C@@H](C)c3ncc(C#N)cc3F)c(C)c12 (single isomer, unassigned) [compound 3517] | – | – | – | Ventricular EC25 [1, 7]: 2.11 µM; Skeletal EC25 [2, 8]: 0.38 µM; Atrial EC25 [3, 9]: 1.12 µM |
| Cc1c(C(F)(F)C(=O)N[C@@H](C)c2ccc(C#N)nn2)c(=O)[nH]c2ccc(F)cc12 (single isomer, unassigned) [compound 2556] | 16.01 | 5.17 | 6.56 | – |
| Cc1nncc2[nH]c(=O)c(CC(=O)N[C@H](C)c3ncc(C#N)cc3F)cc12 [compound 451] | – | – | – | Ventricular EC25 [1, 7]: 100.00 µM; Skeletal EC25 [2, 8]: 100.00 µM; Atrial EC25 [3, 9]: 100.00 µM |
| COc1ccc2[nH]c(=O)c(CC(=O)N[C@@H](C)c3ccc(F)cc3F)cc2c1 [compound 124] | 100.00 | 42.44 | 100.00 | – |
| Cc1c(CC(=O)N[C@@H](C)c2ccc(C#N)cn2)c(=O)[nH]c2ccc(F)cc12 [compound 1128] | 0.70 | 0.09 | 0.52 | – |
| C[C@H](NC(=O)Cc1cc2c(F)c(F)ccc2[nH]c1=O)c1nc(C#N)co1 (single isomer, unassigned) [compound 4007] | – | – | – | Ventricular EC25 [1, 10]: 100.00 µM; Skeletal EC25 (μM), Y125 value (‡) ([2]; Y125 value: concentration required to increase myosin ATP-ase activity by 25%, Rabbit Psoas Prep pCa 25 GEOM_MEAN): 100.00‡ μM; Atrial EC25 [3, 11]: 100.00 µM |
| C[C@@H](NC(=O)C(F)(F)c1cc2c(F)c(F)ccc2[nH]c1=O)c1cc(C#N)ccn1 (single isomer, unassigned) [compound 2557] | 7.27 | 6.04 | 3.66 | – |
| C[C@H](NC(=O)Cc1cc2c(O)nccc2[nH]c1=O)c1ccc(F)cc1F [compound 3013] | – | – | – | Ventricular EC25 [1, 7]: 100.00 µM; Skeletal EC25 [2, 8]: 100.00 µM |
| Cc1c(Cl)ccc2[nH]c(=O)c(CC(=O)N[C@@H](C)c3ncc(C#N)cc3F)c(C)c12 (single isomer, unassigned) [compound 2046] | 0.10 | – | 0.05 | – |
| C[C@H](NC(=O)[C@H](C)c1cc2c(C3CC3)nccc2[nH]c1=O)c1ccc(F)cc1F (single isomer, unassigned) [compound 3506] | – | – | – | Ventricular EC25 [1, 7]: 100.00 µM; Skeletal EC25 (Y125 value, marked ‡) ([2]; rabbit psoas myofibrils, Y125 value, not a Y75 value): 108.50‡ μM |
| Cc1c(C(F)(F)C(=O)N[C@H]2COc3cc(C#N)cc(F)c32)c(=O)[nH]c2ccc(F)cc12 (single isomer, unassigned) [compound 2554] | 0.20 | – | 0.09 | – |
